Assay results taken from patent US11591297B2, “Compound having PD-L1 expression-suppressing action” (TOHOKU UNIVERSITY, priority 2019, dated 2023).

Test system: PD-L1
Assay: Inhibitory effect of PD-L1 expression by cell staining with anti-PD-L1 antibody in IFN-γ-treated THP-1 cells (flow cytometry)
Assay type: cell-based
Settings: Homo sapiens, IFN-γ 25 ng/mL, 24±2 hours, subMFI anti-CD274-PC7, read-out: IC50 (50% PD-L1 expression inhibition concentration)
Protocol: The inhibitory effects of each compound of Examples 1 to 6 on the PD-L1 expression were evaluated according to the following procedures.
(1) Acute monocytic leukemia cell-derived THP-1 cells were suspended in RPMI medium containing 10% FCS and 1% P/S (hereinafter, referred to as “RPMI medium”) at 5×10^5 cells/mL to obtain a cell suspension, and the cell suspension was dispensed into each well of a 6 well-plate in an amount of 3 mL. In order to activate the THP-1 cells and express PD-L1 in the cells, IFN-γ (PEPROTECH, Cat. No. 300-02-100UG, >2e+7 U/mg) was added into each well at a concentration of 25 ng/mL (>500 U/mL). 50 mmol/L of the test compound solution was diluted with the medium (usually, in the range of 0.025 mmol/L to 1 mmol/L), and the diluted solution was added into each well in an amount of 60 μL. The plate was incubated in a CO2 incubator (at 37° C. and 5% CO2) for 24±2 hours. In the control group, only DMSO was added in place of the test compound. (2) A part of the prepared cell culture liquid was collected and the number of cells therein was counted using a cell counter (BIORAD TC-20). The cell culture liquid was centrifuged at 300×g for 5 minutes and the supernatant of the cell culture liquid was removed. The cells were suspended in calcium and magnesium free phosphate buffered saline (PBS−) containing 1% bovine serum albumin (BSA) at a cell concentration of 1 to 2×10^7 cells/mL to prepare a cell suspension. (3) Each cell suspension prepared in the above step (2) were added into a 5 mL tube in an amount of 25 μL. 2 μL of 2% normal mouse serum/PBS− was added into tubes, and the tubes were gently pipetted. The tubes were then allowed to stand at room temperature for 15 minutes. (4) Anti-CD274-PC7 antibody (BECKMAN COULTER, Cat. No. A78884) or mouse IgG1-PC7 antibody (BECKMAN COULTER, 737662) as control was added in each tube in an amount of 10 μL, and the tubes were gently stirred. The tubes were then allowed to stand in the dark on an ice bath for 30 minutes. (5) Foxp3/Transcription Factor Fix/Perm Concentrate (4×) (Cat. No. TNB-1020-L050) (A solution) supplied in FOXP3/Transcription Factor Staining kit (TONBO biosciences) was diluted in Foxp3/Transcription Factor Fix/Perm Diluent (1×) (Cat. No. TNB-1022-L160) (A dilution solution) to prepare a 1×A solution. (6) The 1×A solution was added into each tube in an amount of 1 mL, and the tubes were gently pipetted and stirred. The tubes were then allowed to stand in the dark at room temperature for 30 minutes and centrifuged at 300×g for 5 minutes, and then the supernatants therein were removed. (7) 2 mL of 1% BSA/PBS− was added into each tube and the tubes were gently stirred and centrifuged at 300×g for 5 minutes, and then the supernatants therein were removed. (8) The cells therein were suspended in 0.5 mL of 1% BSA/PBS- and measured with a flow cytometer (Sony: Cell Sorter SH800) within 2 hours. The results were analyzed with a software, FlowJo (Tree Star Inc.). The mean peak fluorescence intensity (MFI) of PD-L1 and mean peak fluorescence intensity of IgG1 were calculated from histograms of the measured fluorescence intensity and number of cells, and the mean fluorescence intensity of IgG1 was subtracted from that of PD-L1 to calculate the subMFI. The experiments were performed in n=2.
The subMFI values of the control cells calculated by the FlowJo analysis and the cells cultured with the addition of the test compounds at each concentration (test cells) were input into an Excel file, and the percentages of the subMFI values of the test cells at each concentration to the average subMFI value of control cells were calculated. The regression line was determined from the percentages of the subMFI values of the test cells at each concentration by the method of least squares to calculate the 50% PD-L1 expression inhibition concentration (IC50 value) of each compound.

Compound	IC50
O=C(Nc1ccc(Oc2ccc(C(F)(F)F)cc2)cc1)C1CCCN(C(=O)c2ccc([N+](=O)[O-])cc2)C1 (stereo not shown) [Example 2, 1-(4-Nitrobenzoyl)-N-(4-(4-(trifluoromethyl)phenoxy)phenyl) piperidine-3-carboxamide]	1200 nM
COc1cc(C(=O)N2CCCC(C(=O)Nc3ccc(Oc4ccc(S(F)(F)(F)(F)F)cc4)cc3)C2)ccc1O (stereo not shown) [Example 6, 1-(4-Hydroxy-3-methoxybenzoyl)-N-(4-(4-(pentafluorosulfanyl)phenoxy)phenyl)piperidine-3-carboxamide]	830 nM
O=C(Nc1ccc(Oc2ccc(S(F)(F)(F)(F)F)cc2)cc1)C1CCCN(C(=O)c2ccc([N+](=O)[O-])cc2)C1 (stereo not shown) [Example 5, 1-(4-Nitrobenzoyl)-N-(4-(4-(pentafluorosulfanyl)phenoxy)phenyl)piperidine-3-carboxamide]	670 nM
COc1cc(C(=O)N2CCCC(C(=O)Nc3ccc(Oc4ccc(C(F)(F)F)cc4)cc3)C2)ccc1O (stereo not shown) [Example 3, 1-(4-Hydroxy-3-methoxybenzoyl)-N-(4-(4-(trifluoromethyl)phenoxy)phenyl)piperidine-3-carboxamide]	930 nM
